Laboratory results: ChEMBL document CHEMBL5131460, “Glenthenamines A-F: Enamine Pyranonaphthoquinones from the Australian Pasture Plant Derived Streptomyces sp. CMB-PB042” (J Nat Prod, 2022)

Columns and labels:
[1] = tested on: SW620/AD300; assay: Cytotoxicity against human SW620/AD300 cells incubated for 48 hrs by MTT assay; type: functional, cell-based; settings: SW620/AD300, 48 h
[2] = tested on: NCI-H460; assay: Cytotoxicity against human NCI-H460 cells incubated for 48 hrs by MTT assay; type: functional, cell-based; settings: NCI-H460, 48 h
[3] = tested on: Candida albicans; assay: Antimicrobial activity against Candida albicans ATCC 10231 incubated for 16 hrs by microplate reader method; type: functional, organism-based; settings: ATCC 10231, 16 h
[4] = target: ATP-dependent translocase ABCB1 (Homo sapiens, UniProt P08183); assay: Reversal of P-glycoprotein mediated doxorubicin resistance in human SW620/AD300 cells overexpressing P-gp assessed as gain in sensitivity against doxorubicin at 2.5 uM incubated for 52 hrs by MTT assay; type: cell-based; settings: sw620/ad300, 52 h
Chain of ATP-dependent translocase ABCB1 (P08183 whole entry): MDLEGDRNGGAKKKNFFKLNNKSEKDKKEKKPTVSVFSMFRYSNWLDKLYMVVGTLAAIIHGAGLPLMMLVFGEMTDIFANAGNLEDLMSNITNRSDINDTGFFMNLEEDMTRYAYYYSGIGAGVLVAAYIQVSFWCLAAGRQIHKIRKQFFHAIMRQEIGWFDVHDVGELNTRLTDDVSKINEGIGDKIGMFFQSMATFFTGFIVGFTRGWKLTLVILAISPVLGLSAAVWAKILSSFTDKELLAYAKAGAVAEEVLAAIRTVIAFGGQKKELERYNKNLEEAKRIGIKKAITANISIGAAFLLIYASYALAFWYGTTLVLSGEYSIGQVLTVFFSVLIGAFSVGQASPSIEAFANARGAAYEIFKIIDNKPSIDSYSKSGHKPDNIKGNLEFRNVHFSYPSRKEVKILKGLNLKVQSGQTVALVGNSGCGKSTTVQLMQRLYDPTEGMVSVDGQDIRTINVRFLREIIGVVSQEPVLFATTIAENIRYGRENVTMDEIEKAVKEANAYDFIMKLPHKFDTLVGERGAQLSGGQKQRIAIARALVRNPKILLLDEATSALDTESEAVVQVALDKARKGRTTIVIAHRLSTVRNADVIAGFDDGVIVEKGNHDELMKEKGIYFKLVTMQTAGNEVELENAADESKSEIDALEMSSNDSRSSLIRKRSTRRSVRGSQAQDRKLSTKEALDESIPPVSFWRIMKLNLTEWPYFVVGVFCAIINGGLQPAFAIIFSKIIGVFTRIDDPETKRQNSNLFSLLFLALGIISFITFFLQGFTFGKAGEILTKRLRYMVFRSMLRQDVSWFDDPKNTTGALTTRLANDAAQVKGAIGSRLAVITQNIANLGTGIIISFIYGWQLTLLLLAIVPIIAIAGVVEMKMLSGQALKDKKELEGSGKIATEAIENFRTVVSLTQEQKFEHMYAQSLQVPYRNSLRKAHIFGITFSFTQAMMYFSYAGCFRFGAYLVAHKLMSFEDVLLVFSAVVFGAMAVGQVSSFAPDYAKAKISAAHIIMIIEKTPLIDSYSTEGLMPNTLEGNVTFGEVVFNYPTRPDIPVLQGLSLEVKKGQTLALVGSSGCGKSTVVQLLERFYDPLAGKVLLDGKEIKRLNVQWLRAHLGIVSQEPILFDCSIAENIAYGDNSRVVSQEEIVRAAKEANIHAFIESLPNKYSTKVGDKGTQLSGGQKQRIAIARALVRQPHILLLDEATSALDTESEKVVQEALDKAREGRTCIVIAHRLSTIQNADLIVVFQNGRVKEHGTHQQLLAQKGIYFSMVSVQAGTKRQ

| Compound | IC50 [1] | IC50 [2] | IC50 [3] | Activity [4] |
| --- | --- | --- | --- | --- |
| C[C@@H](O)[C@@H]1CCc2c3c4c(c(O)c(O)c(C[C@@H](O)CC(=O)O)c4n21)C(=O)C=C3 | > 30 µM | > 30 µM | > 30 µM | – |
| COC(=O)C[C@H]1Cc2c(c(O)c3c4c(c5n(c24)[C@H]([C@@H](C)O)CC5)C=CC3=O)[C@H](C)O1 | > 30 µM | > 30 µM | > 30 µM | 45% |
| C[C@H]1O[C@]2(C)CC(=O)O[C@]2(C)c2c1c(O)c1c3c(c4n(c23)[C@@H]([C@@H](C)O)CC4)C=CC1=O | > 30 µM | > 30 µM | > 30 µM | – |
| C[C@H]1Oc2c(O)c3c4c(c5n(c4c2C[C@H](CC(=O)O)O1)[C@H]([C@@H](C)O)CC5)C=CC3=O | > 30 µM | > 30 µM | > 30 µM | – |
| C[C@@H]1O[C@@H](CC(=O)O)C(=O)c2c1c(O)c1c3c(c4n(c23)[C@H]([C@@H](C)O)CC4)C=CC1=O | > 30 µM | > 30 µM | > 30 µM | 45% |
| C[C@H]1OC(CC(=O)O)=Cc2c1c(O)c1c3c(c4n(c23)[C@H]([C@@H](C)O)CC4)C=CC1=O | > 30 µM | > 30 µM | > 30 µM | 45% |
| C[C@H]1O[C@H](CC(=O)O)Cc2c1c(O)c1c3c(c4n(c23)[C@@H]([C@@H](C)O)CC4)C=CC1=O | > 30 µM | > 30 µM | > 30 µM | 45% |
| C[C@@H]1OC(CC(=O)O)=Cc2c1c(O)c1c3c(c4n(c23)[C@H]([C@@H](C)O)CC4)C=CC1=O | > 30 µM | > 30 µM | > 30 µM | 45% |
